Patent US12458634B2, “Stabilized liquid formations containing picosulfate” (Ferring B.V., priority 2016, dated 2025)

Test: Chemical stability of sodium picosulfate liquid formulations on storage (UPLC/HPLC assay of sodium picosulfate and degradation products)
Details: for Effect of the anti-oxidant on rate of formation of Picosulfate Benzyl Alcohol: formulations containing sodium picosulfate, magnesium citrate and malic acid; for Effect of the anti-oxidant on initial rate of formation of Picosulfate Benzyl Alcohol, Compound RRT 1.35 and Compound RRT 1.94: formulations containing sodium carboxymethylcellulose and malic acid (Table 14)
[1] = water-insoluble antioxidants (Table 21)
[2] = water-soluble antioxidants (Table 17)

Row | Compound | Effect of the anti-oxidant on rate of formation of Picosulfate Benzyl Alcohol [1] | Effect of the anti-oxidant on rate of formation of Picosulfate Benzyl Alcohol [2] | Effect of the anti-oxidant on initial rate of formation of Picosulfate Benzyl Alcohol, Compound RRT 1.35 and Compound RRT 1.94
1 | COc1ccc(O)c(C(C)(C)C)c1 [BHA, butylated hydroxyanisole] | effective to reduce the rate of formation |  | 
2 | Cc1cc(C(C)(C)C)c(O)c(C(C)(C)C)c1 [BHT, butylated hydroxytoluene] | effective to reduce the rate of formation |  | 
3 | N[C@@H](Cc1c[nH]cn1)C(=O)O [histidine] |  | effective to reduce the rate of formation | 
4 | O=S([O-])S(=O)(=O)[O-].[K+].[K+] [potassium metabisulfite] |  |  | effective to reduce the initial rate of formation
5 | CCCOC(=O)c1cc(O)c(O)c(O)c1 [propyl gallate] | effective to reduce the rate of formation |  | 
6 | O=S([O-])S(=O)(=O)[O-].[Na+].[Na+] [sodium metabisulfite] |  | effective to reduce the rate of formation | effective to reduce the initial rate of formation
7 | Cc1c(C)c2c(c(C)c1O)CC[C@@](C)(CCC[C@H](C)CCC[C@H](C)CCCC(C)C)O2 [α-tocopherol] | effective to reduce the rate of formation |  | 
